The values below come from patent publication US7432260B2, “Pyrimidine compounds” (Cyclacel Limted, priority 2002, dated 2008).

The IC90 is the concentration at which the effect reaches the 90% level. Higher therefore signals a need for much substance.

Where two headings read alike, the source gives them in different places.

In assay [1] the test system is HIV-1 (clinical paediatric strain RoJo or WeJo) in human PBMCs. Description: Anti-HIV efficacy evaluation in fresh human PBMCs. In kind it is cell-based. The settings on record: for IC50 / IC90: Human immunodeficiency virus 1, PBMC, 168 h, seven days following infection; for IC50: concentration inhibiting virus replication by 50%; for IC90: concentration inhibiting virus replication by 90%. The method, then: Representative compounds of the present invention were tested for antiviral activity against HIV-1 in human peripheral blood mononuclear cells (PBMCs) using the clinical paediatric HIV strain RoJo or WeJo. PBMCs were cultured under conditions which promote cell survival and HIV replication. Antiviral activity was tested for from 6-9 log10 serial dilutions of a 100 μM compound stock solution in DMSO.
Fresh PBMCs, seronegative for HIV and HBV, were isolated from screened donors (Interstate Blood Bank, Inc. Memphis, Term.). Cells were pelleted/washed 2-3 times by low speed centrifugation and re-suspension in PBS to remove contaminating platelets. […] Banded PBMCs were gently aspirated from the resulting interface and subsequently washed with PBS by low speed centrifugation. After the final wash, cells were enumerated by trypan blue exclusion and re-suspended in RPMI 1640 supplemented with fetal bovine serum (FBS), and L-glutamine, Phytohemagglutinin (PHA-P, Sigma). The cells were allowed to incubate at 37° C. After incubation, PBMCs were centrifuged and resuspended in RPMI 1640 with FBS, L-glutamine, penicillin, streptomycin, gentamycin, and recombinant human IL-2 (R&D Systems, Inc). IL-2 is included in the culture medium to maintain the cell division initiated by the PHA mitogenic stimulation. PBMCs were maintained in this with bi-weekly medium changes until used in the assay protocol. Cells were kept in culture for a maximum of two weeks before being deemed too old for use in assays and discarded. Monocytes were depleted from the culture as the result of adherence to the tissue culture flask.
For the standard PBMC assay, PHA-P stimulated cells from at least two normal donors were pooled, diluted and plated in the interior wells of a 96-well round bottom microplate. Pooling of mononuclear cells from more than one donor was used to minimise the variability observed between individual donors, which results from quantitative and qualitative differences in HIV infection and overall response to the PHA and IL-2 of primary lymphocyte populations. Each plate contained virus/cell control wells (cells plus virus), experimental wells (drug plus cells plus virus) and compound control wells (drug plus media […], necessary for MTS monitoring of cytotoxicity). Since HIV-1 is not cytopathic to PBMCs, this allows the use of the same assay plate for both antiviral activity and cytotoxicity measurements. Test drug dilutions were prepared in microtiter tubes and each concentration was placed in appropriate wells using the standard format. A predetermined dilution of virus stock was placed in each test well (final MOI≅0.1). The PBMC cultures were maintained for seven days following infection at 37° C., 5% CO2. After this period, cell-free supernatant samples were collected for analysis of reverse transcriptase activity and/or HIV p24 content. Following removal of supernatant samples, compound cytotoxicity was measured by addition of MTS to the plates for determination of cell viability. Wells were also examined microscopically and any abnormalities were noted.
Reverse transcriptase activity assay: A microtiter plate-based reverse transcriptase (RT) reaction was utilised (Buckheit et al., AIDS Research and Human Retroviruses 7:295-302, 1991). Tritiated thymidine triphosphate (^3H-TTP, 80 Ci/mmol, NEN) was received in 1:1 dH2O:Ethanol at 1 mCi/mL. Poly rA:oligo dT template:primer (Pharmacia) was prepared as a stock solution, followed by aliquoting and storage at −20° C. The RT reaction buffer was prepared fresh on a daily basis. The final reaction mixture was prepared by combining ^3H-TTP, dH2O, poly rA:oligo dT stock and reaction buffer. This reaction mixture was placed in a round bottom microtiter plate and supernatant containing virus was added and mixed. The plate was incubated at 37° C. for 60 minutes. Following incubation, the reaction volume was spotted onto DE81 filter-mats (Wallac), in a sodium phosphate buffer or 2×SSC (Life Technologies). […]

In a further assay the target is PLK-1 (Homo sapiens, UniProt P53350). Briefly: Kinase assay PLK-1. The format is biochemical. The essentials:
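Radiometric kinase assays with recombinant enzymes (2-4 μg) and polypeptide substrates in β-glycerophosphate/MOPS/EGTA buffer, pH 7.4. Started with 15 mM MgCl2 + 100 μM ATP containing [γ-32P]-ATP, incubated at 30° C; incorporated 32P captured on filterplates and counted. Compounds diluted in 10% DMSO assay buffer.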

Assay [2] concerns the target p70 ribosomal protein S6 kinase (Homo sapiens, UniProt P23443). Description: Kinase assay p70/S6. The settings on record: Table 3 selectivity panel; read-out: Kinase specificity IC50 p70/S6. The format is biochemical. The method, then: (§1) Kinase assays. […] This was achieved by measurement of incorporation of radioactive phosphate from ATP into appropriate polypeptide substrates. Recombinant protein kinases and kinase complexes were produced or obtained commercially. Assays were performed using 96-well plates and appropriate assay buffers (typically 25 mM β-glycerophosphate, 20 mM MOPS, 5 mM EGTA, 1 mM DTT, 1 mM […], pH 7.4), into which were added 2-4 μg of active enzyme with appropriate substrates. The reactions were initiated by addition of Mg/ATP mix (15 mM MgCl2+100 μM ATP with 30-50 kBq per well of [γ-^32P]-ATP) and mixtures incubated as required at 30° C. Reactions were stopped on ice, followed by filtration through p81 filterplates or GF/C filterplates (Whatman Polyfiltronics, Kent, UK). After washing 3 times with 75 mM aq orthophosphoric acid, plates were dried, scintillant added and incorporated radioactivity measured in a scintillation counter (TopCount, Packard Instruments, Pangbourne, Berks, UK). Compounds for kinase assay were made-up as 10 mM stocks in DMSO and diluted into 10% DMSO inrassay buffer.

The next assay relates to Messa. Description: 72-h MTT cytotoxicity assay Messa. In kind it is cell-based. The settings on record: Homo sapiens, MES-SA, Table 5, Uterine. The method, then: (§2) MTT cytotoxicity assay. […] Standard 72-h MTT (thiazolyl blue; 3-[4,5-dimethylthiazol-2-yl]-2,5-diphenyltetrazolium bromide) assays were performed (Haselsberger, K.; Peterson, D. C.; Thomas, D. G.; Darling, J. L. Anti Cancer Drugs 1996, 7, 331-8; Loveland, B. E.; Johns, T. G.; Mackay, I. R.; Vaillant, F.; Wang, Z. X.; Hertzog, P. J. Biochemistry International 1992, 27, 501-10). In short: cells were seeded into 96-well plates according to doubling time and incubated overnight at 37° C. Test compounds were made up in DMSO and a 1/3 dilution series prepared in 100 μL cell media, added to cells (in triplicates) and incubated for 72 ho at 37° C. MTT was made up as a stock of 5 mg/mL in cell media and filter-sterilised. Media was removed from cells followed by a wash with 200 μL PBS.
(§3) MTT solution was then added at 20 μL per well and incubated in the dark at 37° C. for 4 h. MTT solution was removed and cells again washed with 200 μL PBS. MTT dye was solubilised with 200 μL per well of DMSO with agitation.
A general note: Tetrazolium assays rely on reduction of a dye to a coloured formazan, in cell work by metabolically active cells.

The target in assay [3] is Akt/PKB (protein kinase B) (Homo sapiens, UniProt P31749). Briefly: Kinase assay Akt/PKB. The format is biochemical. The settings on record: Table 3 selectivity panel; read-out: Kinase specificity IC50 Akt/PKB. The method, then:
as §1

The test system of the next assay is SKUT-1B. Description: 72-h MTT cytotoxicity assay SKUT-1B. The format is cell-based. The settings on record: Homo sapiens, Skut1B, Table 5, Leiomyosarcoma. As to the method: as §2, §3
For the next assay, the system named is H1299. Briefly: 72-h MTT cytotoxicity assay H1299. In kind it is cell-based. The settings on record: Homo sapiens, NCI-H1299, 72 h; Table 5; Lung. As to the method:
as §2, §3

Where [4] appears, read: Table 2, read-out: Kinase Inhibition IC50 PLK-1.
[5] abbreviates: Table 3 selectivity panel, read-out: Kinase specificity IC50 PLK1.

Sequence of Akt/PKB (protein kinase B) (P31749 whole entry): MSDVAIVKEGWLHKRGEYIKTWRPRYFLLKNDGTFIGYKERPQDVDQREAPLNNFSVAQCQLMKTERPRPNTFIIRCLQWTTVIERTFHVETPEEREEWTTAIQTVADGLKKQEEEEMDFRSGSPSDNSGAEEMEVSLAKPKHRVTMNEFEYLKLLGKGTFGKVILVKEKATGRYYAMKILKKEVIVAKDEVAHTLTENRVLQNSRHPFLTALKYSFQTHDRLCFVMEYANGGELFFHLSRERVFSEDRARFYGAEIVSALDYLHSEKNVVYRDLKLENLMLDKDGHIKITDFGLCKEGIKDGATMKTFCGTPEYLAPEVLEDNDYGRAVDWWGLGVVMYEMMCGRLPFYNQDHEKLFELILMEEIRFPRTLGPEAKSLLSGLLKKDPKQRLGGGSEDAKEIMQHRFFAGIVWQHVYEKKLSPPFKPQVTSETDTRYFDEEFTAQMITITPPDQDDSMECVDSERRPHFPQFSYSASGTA
Sequence of p70 ribosomal protein S6 kinase (P23443 91-352 limits assumed): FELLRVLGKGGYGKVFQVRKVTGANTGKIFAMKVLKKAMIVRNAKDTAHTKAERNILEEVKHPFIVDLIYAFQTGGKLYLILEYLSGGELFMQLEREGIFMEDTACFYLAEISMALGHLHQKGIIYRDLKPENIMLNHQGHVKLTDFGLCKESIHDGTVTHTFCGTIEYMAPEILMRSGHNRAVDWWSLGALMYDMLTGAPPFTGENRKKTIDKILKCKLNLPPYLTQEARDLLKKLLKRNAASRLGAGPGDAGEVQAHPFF
Sequence of PLK-1 (P53350 whole entry): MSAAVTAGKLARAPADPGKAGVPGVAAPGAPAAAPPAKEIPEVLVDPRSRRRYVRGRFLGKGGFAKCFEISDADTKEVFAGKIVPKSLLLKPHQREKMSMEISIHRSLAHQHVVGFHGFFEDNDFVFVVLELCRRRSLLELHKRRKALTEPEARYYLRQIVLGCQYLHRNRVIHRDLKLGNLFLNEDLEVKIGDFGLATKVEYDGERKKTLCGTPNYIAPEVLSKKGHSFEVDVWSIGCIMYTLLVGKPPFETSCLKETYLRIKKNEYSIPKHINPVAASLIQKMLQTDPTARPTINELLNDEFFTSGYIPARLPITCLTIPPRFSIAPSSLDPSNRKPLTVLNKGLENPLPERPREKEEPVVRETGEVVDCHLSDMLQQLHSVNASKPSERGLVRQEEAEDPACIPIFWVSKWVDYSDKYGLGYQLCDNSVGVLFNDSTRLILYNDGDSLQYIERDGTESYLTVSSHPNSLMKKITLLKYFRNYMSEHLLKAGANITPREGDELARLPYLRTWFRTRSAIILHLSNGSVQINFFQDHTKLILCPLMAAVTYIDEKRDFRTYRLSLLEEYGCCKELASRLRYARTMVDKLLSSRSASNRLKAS

In the case of `CCNc1nc(C)c(-c2ccnc(Nc3ccc(N4CCOCC4)cc3)n2)s1` [Compound 4, [4-(2-Ethylamino-4-methyl-thiazol-5-yl)-pyrimidin-2-yl]-(4-morpholin-4-yl-phenyl)-amine], in assay [1], the IC50 was 166 nM and the 90% effect level (IC90) was put at 295 nM. The IC50 at PLK-1 (setting [4]) is over 100000 nM.
Regarding `CC[C@@H](N)C(=O)Nc1nc(C)c(-c2ccnc(Nc3cccc([N+](=O)[O-])c3)n2)s1` [Compound 16, (2R)-2-Amino-N-{4-methyl-5-[2-(3-nitro-phenylamino)-pyrimidin-4-yl]-thiazol-2-yl}-butyramide], the IC50 is 8000 nM in assay [2]; 400 nM in the assay with Messa; over 100000 nM in assay [3]; 100 nM with SKUT-1B; over 150000 nM on PLK-1 (setting [4]); over 100000 nM on PLK-1 (setting [5]). This compound yielded an IC50 with H1299 of 600 nM.
Consider `Cc1nc(N)sc1-c1ccnc(Nc2ccc(N3CCOCC3)cc2)n1` [Compound 1, [4-(2-Amino-4-methyl-thiazol-5-yl)-pyrimidin-2-yl]-(4-morpholin-4-yl-phenyl)-amine], for which the “anti-viral effect in cell based assays” value in assay [1] is listed as “particularly effective anti-viral agent”. Moreover, the IC50 in assay [1] stood at 1330 nM; in the assay on Messa it was 200 nM; in the assay with H1299, 900 nM. The compound further returned an IC90 in assay [1] of 2640 nM.
In the case of `Cc1nc(NC(=O)[C@H](N)[C@@H](C)O)sc1-c1ccnc(Nc2cccc([N+](=O)[O-])c2)n1` [Compound 15, (2R,3R)-2-Amino-3-hydroxy-N-{4-methyl-5-[2-(3-nitro-phenylamino)-pyrimidin-4-yl]-thiazol-2-yl}-butyramide], the IC50 was 124 nM in assay [1]; over 100000 nM in assay [2]; 900 nM in the assay with Messa; over 100000 nM in assay [3]; 200 nM in the assay with SKUT-1B; over 150000 nM at PLK-1 (setting [4]). The values for the IC50 on PLK-1 (setting [5]) and in the assay with H1299 were over 100000 nM and 1300 nM, respectively. In addition, the concentration for an effect of 90% (IC90) in assay [1] is 385 nM.
In the case of `CNc1nc(C)c(-c2ccnc(Nc3ccc(N4CCN(Cc5ccccc5)CC4)cc3)n2)s1` [Compound 11, [4-(4-Benzyl-piperazin-1-yl)-phenyl]-[4-(4-methyl-2-methylamino-thiazol-5-yl)-pyrimidin-2-yl]-amine], the IC50 in assay [2] is over 100000 nM; with Messa, 100 nM; in assay [3], over 100000 nM; with SKUT-1B it was 300 nM; at PLK-1 (setting [4]), 19000 nM; at PLK-1 (setting [5]), 19000 nM. Further, the IC50 in the assay with H1299 is 1100 nM.
For the compound `CNc1nc(C)c(-c2ccnc(Nc3ccc(N4CCOCC4)cc3)n2)s1` [Compound 3, [4-(2-N-Methylamino-4-methyl-thiazol-5-yl)-pyrimidin-2-yl]-(4-morpholinophenyl)-amine], the IC50 was 297 nM in assay [1]; 2600 nM in assay [2]; over 100000 nM in assay [3]; over 150000 nM on PLK-1 (setting [4]); over 100000 nM at PLK-1 (setting [5]). In assay [1], this compound showed an IC90 of 679 nM.
In assay [1], `Cc1nc(C)c(-c2ccnc(Nc3ccc(NC(=O)CN4CCCC4)cc3)n2)s1` [Compound 53, N-{4-[4-(2,4-Dimethyl-thiazol-5-yl)-pyrimidin-2-ylamino]-phenyl}-2-pyrrolidin-1-yl-acetamide] yielded an IC50 of 812 nM and a concentration for an effect of 90% (IC90) of 871 nM.
